Data on 6 compounds can be found in PMC2646871 (Journal of Medicinal Chemistry, 2008).

A value given as a limit tells only on which side of the number the result lay.

In general, IC50 refers to the midpoint of a concentration-inhibition curve.

The first test has as its target recombinant HIV-1 integrase (Human immunodeficiency virus type 1 group M subtype B, UniProt P12497). Briefly: High throughput electrochemiluminescent. It counts as biochemical.
Conditions: not given
`O=C(O)/C(O)=C/C(=O)c1c[nH]c2ccc(Cl)cc2c1=O` [8a, 4-(6-Chloro-4(1H)-quinolinon-3-yl)-2-hydroxy-4-oxo-2-butenoic Acid]: the IC50 is over 111000 nM.
On the same count and under the same terms, for `O=C(O)/C(O)=C/C(=O)c1cn(Cc2ccc(F)cc2)c2ccc(F)cc2c1=O` [6b, 4-[6-Fluoro-1-(4-fluorophenyl)methyl-4(1H)-quinolinon-3-yl]-2-hydroxy-4-oxo-2-butenoic Acid] the value was 30 nM; for `O=C(O)/C(O)=C/C(=O)c1cn(Cc2ccc(F)cc2)c2c(Cl)cccc2c1=O` [6g, 4-[8-Chloro-1-(4-fluorophenyl)methyl-4(1H)-quinolinon-3-yl]-2-hydroxy-4-oxo-2-butenoic Acid], 23 nM.
On the same count and under the same terms, for `CCOC(=O)/C(O)=C/C(=O)c1c[nH]c2cc(Cl)ccc2c1=O` [7b, 4-(7-Chloro-4(1H)-quinolinon-3-yl)-2-hydroxy-4-oxo-2-butenoic Acid Ethyl Ester] the value was over 111000 nM.

The test is the same for the next values; noted with them: relative to 6f.
Take `O=C(O)/C(O)=C/C(=O)c1cn(Cc2ccc(F)cc2)c2cc(N3CCCC3)ccc2c1=O` [6i, 4-[1-(4-Fluorophenyl)methyl-7-(pyrrolidin-1-yl)-4(1H)-quinolinon-3-yl]-2-hydroxy-4-oxo-2-butenoic Acid]: the “times less potent than parent compound 6f (ST, HTECL)” value is recorded as “approximately 1.5”.
Still for that read-out and setting: the result for `O=C(O)/C(O)=C/C(=O)c1cn(Cc2ccc(F)cc2)c2cc(Cl)c(Cl)cc2c1=O` [6h, 4-[6,7-Dichloro-1-(4-fluorophenyl)methyl-4(1H)-quinolinon-3-yl]-2-hydroxy-4-oxo-2-butenoic Acid] reads “approximately 1.5”.
